Measured values as given in US10722575B2, “Use of 1,3-diphenylprop-2-en-1-one derivatives for treating liver disorders” (GENFIT, priority 2009, dated 2020).

Tested on: hApoE2 KI/PPARalpha KO mice
Test: hApoE2 KI/PPARalpha KO mice on Western diet, 2 weeks, histological scores of liver steatosis and intralobular inflammation
Format: in vivo
Conditions: 30 mg/kg/day
Description: Animals were fed a Western diet (20% saturated fat and 0.2% cholesterol, Harlan Teklad TD88137) during 2 weeks in the first study, that involved the daily administration of Cpd 29 (at 30 mg/kg/day by oral gavage), and during 6 weeks in the second study, that involved the daily administration of Compound 1 of WO 2007147879 (Cpd1, at 30 mg/kg/day by oral gavage). Control animals were treated with vehicle only (Carboxymethlycellulose 1%+Tween-80 0.1%). Animals had access to food and water ad libitum.
At the end of the studies, the animals were weighed and sacrificed under anesthesia. Blood was collected from the retro-orbital sinus; plasma was obtained by centrifugation (4 000 rpm, at 4° C. for 15 min) and subsequently frozen and stored at −20° C. Tissues and livers were isolated and snap-frozen in liquid nitrogen and stored at −80° C. for subsequent analysis (gene expression and biochemistry) or fixed in 4% paraformaldehyde for histology.
Formalin-fixed liver tissue was processed, and 5-μm-thick paraffin sections were stained with Hematoxylin and Eosin. The histological analysis of stained liver sections was carried out in blind conditions to quantify liver steatosis and liver intralobular inflammation. Liver steatosis was scored from 0 to 3 as follows: 0 (very slightly affected), 1 (slightly affected), 2 (moderately affected), 3 (highly affected). Liver intralobular inflammation was also scored depending on the number of inflammatory foci counted by field of observation as follows: 0 (<1 focus/field), 1 (1 to 2 foci/field), 2 (2 to 4 foci/field) 3 (more than 4 foci/field).
Exemplary compounds of the General Formula (I) were tested in vivo in a high fat diet mice model. hApoE2 KI and hApoE2 KI/PPARalpha KO (“humanized” ApoE2 knock-in mice deficient for the mPPARalpha gene) were fed a Western diet and daily treated with the Cpd 29 at 30 mg/kg/day during 2 weeks. At the end of the protocol, liver steatosis and intra-lobular inflammation were evaluated in the control and treated mice by means of histological analysis and specific scores.

[1] = hApoE2 KI/PPARalpha KO mice, Western diet

1-[4-methylthiophenyl]-3-[3,5-dimethyl-4-carboxydimethylmethyloxyphenyl]prop-2-en-1-one [Cpd 29]
development of liver inflammation induced by the diet [1]: inhibits
development of liver steatosis induced by the diet [1]: inhibits
Liver Inflammation (score) 0 (share of group with score 0 (<1 focus/field), hApoE2 KI/PPARalpha KO): 67%
Liver Steatosis (score) 0 (share of group with score 0 (very slightly affected), hApoE2 KI/PPARalpha KO): 0%
Liver Inflammation (score) 1 (share of group with score 1 (1 to 2 foci/field), hApoE2 KI/PPARalpha KO): 17%
Liver Steatosis (score) 1 (share of group with score 1 (slightly affected), hApoE2 KI/PPARalpha KO): 33%
Liver Inflammation (score) 2 (share of group with score 2 (2 to 4 foci/field), hApoE2 KI/PPARalpha KO): 17%
Liver Steatosis (score) 2 (share of group with score 2 (moderately affected), hApoE2 KI/PPARalpha KO): 50%
Liver Steatosis (score) 3 (share of group with score 3 (highly affected), hApoE2 KI/PPARalpha KO): 17%
Liver Inflammation (score) 3 (share of group with score 3 (more than 4 foci/field), hApoE2 KI/PPARalpha KO): 0%
